SMILES strings stand for the structures.

For one test, the target named is T1, Human SGLT2 (Homo sapiens, UniProt P31639).
T1 construct: expressed in transfected cells; host or cells: CHO-K1
T1 sequence (P31639 1-672): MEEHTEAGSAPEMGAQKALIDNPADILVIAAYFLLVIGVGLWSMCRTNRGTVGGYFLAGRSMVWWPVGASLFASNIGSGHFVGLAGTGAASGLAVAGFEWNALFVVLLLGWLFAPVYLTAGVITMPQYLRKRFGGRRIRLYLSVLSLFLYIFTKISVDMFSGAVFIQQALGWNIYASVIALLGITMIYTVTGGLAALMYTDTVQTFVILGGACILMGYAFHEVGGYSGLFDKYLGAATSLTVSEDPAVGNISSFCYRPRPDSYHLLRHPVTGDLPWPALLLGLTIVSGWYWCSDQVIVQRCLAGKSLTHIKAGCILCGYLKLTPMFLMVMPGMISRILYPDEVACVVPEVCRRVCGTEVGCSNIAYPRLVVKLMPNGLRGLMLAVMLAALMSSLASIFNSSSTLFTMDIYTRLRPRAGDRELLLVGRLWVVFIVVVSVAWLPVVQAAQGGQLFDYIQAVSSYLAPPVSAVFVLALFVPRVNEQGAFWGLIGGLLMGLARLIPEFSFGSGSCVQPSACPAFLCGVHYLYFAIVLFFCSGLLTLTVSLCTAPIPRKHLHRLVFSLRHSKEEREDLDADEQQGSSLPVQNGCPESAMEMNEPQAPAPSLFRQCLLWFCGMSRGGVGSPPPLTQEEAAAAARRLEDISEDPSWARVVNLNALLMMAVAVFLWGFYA
Description: Sodium-dependent sugar uptake inhibition test in CHO-K1 cells stably expressing human SGLT2 (Test Example 2). The format is cell-based. Particulars: for IC50: CHO-K1 cells, [14C]methyl-α-D-glucopyranoside 1 mM, 37° C., one hour; for SGLT1/SGLT2: ratio of IC50 human SGLT1 to IC50 human SGLT2. As for the experimental part:
(§1) Human SGLT1 sequence (NM_000343) was reverse-transcripted from human small intestinal mRNA, then amplified, and then introduced into pCMV-tag5A from Stratagene Corporation. Human SGLT2 sequence (NM_003041) was prepared from human nephric mRNA as with the above method, and then introduced into pcDNA3.1+hygro from Invitrogen Corporation. Each cloned sequence was confirmed to be identical with the reported sequence.
(§2) CHO-K1 cells were transfected with the human SGLT1 and human SGLT2 expression vectors using Lipofectamine 2000 (Invitrogen Corporation). SGLT expression cells were cultured in the presence of geneticin (SGLT1) or hygromycin B (SGLT2) of the concentration of 500 μg/mL to select resistant strains. Cells were obtained using sugar uptake specific activity as an index in the following system.
(§3) Cells stably expressing human SGLT1 and human SGLT2 were used in the sodium-dependent sugar uptake activity inhibition test. Cells were incubated in 1 mL of a pretreatment buffer solution (140 mM choline chloride, 2 mM KCl, 1 mM CaCl2, 1 mM MgCl2, 10 mM HEPES/5 mM Tris, pH 7.4) for 20 minutes. The pretreatment buffer solution was removed and 200 μL of an uptake buffer containing test compounds (methyl-α-D-glucopyranoside containing [^14C]methyl-α-D-glucopyranoside (0.1 mM for SGLT1 inhibition, 1 mM for SGLT2 inhibition), 140 mM NaCl, 2 mM KCl, 1 mM CaCl2, 1 mM MgCl2, 10 mM HEPES/5 mM Tris, pH 7.4) were added, and uptake reaction was performed at 37° C. for 30 minutes (SGLT1) or for one hour (SGLT2). After the reaction, cells were washed with 1 mL of a washing buffer (10 mM methyl-α-D-glucopyranoside, 140 mM choline chloride, 2 mM KCl, 1 mM CaCl2, 1 mM MgCl2, 10 mM HEPES/5 mM Tris, pH 7.4) twice and dissolved in 400 μL of 0.2 M NaOH solution. After Aquazole 2 (Perkin Elmer Corporation) was added and mixed well, radioactivity was measured with a liquid scintillation counter (Beckman Coulter Corporation). A buffer for uptake which contained no test compound was prepared as a control group. Another buffer solution for uptake containing choline chloride in place of NaCl was also prepared for basic uptake.

Another test addresses T2, Human SGLT1 (Homo sapiens, UniProt P13866).
T2 construct: expressed in transfected cells; host or cells: CHO-K1
T2 sequence (P13866 1-664): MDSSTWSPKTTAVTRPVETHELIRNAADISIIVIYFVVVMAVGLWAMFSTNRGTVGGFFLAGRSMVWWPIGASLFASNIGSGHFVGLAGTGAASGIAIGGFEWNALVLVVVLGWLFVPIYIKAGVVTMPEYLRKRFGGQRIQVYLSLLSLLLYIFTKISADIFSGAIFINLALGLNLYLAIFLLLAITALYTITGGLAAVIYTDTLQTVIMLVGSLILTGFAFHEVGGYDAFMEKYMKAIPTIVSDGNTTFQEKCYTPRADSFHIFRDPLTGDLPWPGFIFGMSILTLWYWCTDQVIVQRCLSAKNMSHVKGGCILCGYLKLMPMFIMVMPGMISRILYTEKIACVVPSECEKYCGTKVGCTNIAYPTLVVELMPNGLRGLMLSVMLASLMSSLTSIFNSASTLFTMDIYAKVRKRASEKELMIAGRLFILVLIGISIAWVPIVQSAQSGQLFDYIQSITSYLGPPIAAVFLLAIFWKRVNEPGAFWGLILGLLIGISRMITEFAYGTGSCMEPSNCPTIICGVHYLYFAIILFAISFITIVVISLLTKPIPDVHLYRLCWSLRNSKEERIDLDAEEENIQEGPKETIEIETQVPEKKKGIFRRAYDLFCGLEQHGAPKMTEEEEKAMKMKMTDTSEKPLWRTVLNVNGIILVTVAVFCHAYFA
Description: Sodium-dependent sugar uptake inhibition test in CHO-K1 cells stably expressing human SGLT1 (Test Example 2). Format: cell-based. Particulars: [14C]methyl-α-D-glucopyranoside 0.1 mM, 37° C., 30 minutes. As for the experimental part:
as §1, §2, §3

The IC50 is the concentration at which inhibition is half-maximal. The low end stands for greater potency in that assay, the high end for weaker potency in that assay. As to `Cc1ccc(Cc2cc([C@@H]3S[C@H](CO)[C@@H](O)[C@H](O)[C@H]3O)ccc2Cl)cc1` [Compound 92, (1S)-1,5-Anhydro-1-[4-chloro-3-(4-methylbenzyl)phenyl]-1-thio-D-glucitol], at Human SGLT2, the IC50 came to 30 nM and the SGLT1/SGLT2 came out at 7.7. Moreover, the IC50 on Human SGLT1 stood at 0.2 µM.

With `COc1ccc(Cc2cc([C@@H]3S[C@H](CO)[C@@H](O)[C@H](O)[C@H]3O)ccc2Cl)cc1` [Compound 88, (1S)-1,5-Anhydro-1-[4-chloro-3-(4-methoxybenzyl)phenyl]-1-thio-D-glucitol], the IC50 on Human SGLT2 was determined as 80 nM; against Human SGLT1, 0.2 µM. Besides, the SGLT1/SGLT2 at Human SGLT2 is listed as 2.8.

Consider `CCOc1ccc(Cc2cc([C@@H]3S[C@H](CO)[C@@H](O)[C@H](O)[C@H]3O)c(OC)cc2OC)cc1` [Compound 80, (1S)-1,5-Anhydro-1-[4,6-dimethoxy-3-(4-ethoxybenzyl)phenyl]-1-thio-D-glucitol], for which the results for the IC50 on Human SGLT2 and against Human SGLT1 were 190 nM and 2.9 µM, respectively.

Turning to `CCc1ccc(Cc2cc([C@@H]3S[C@H](CO)[C@@H](O)[C@H](O)[C@H]3O)c(OC)cc2Cl)cc1` [Compound 102, (1S)-1,5-Anhydro-1-[4-chloro-3-(4-ethylbenzyl)-6-methoxyphenyl]-1-thio-D-glucitol], on Human SGLT2, the IC50 came out at 40 nM and the SGLT1/SGLT2 is on record as 86.6. For the same compound, on Human SGLT1, the IC50 was found to be 3.5 µM.

Regarding `CCOc1ccc(Cc2cc([C@@H]3S[C@H](CO)[C@@H](O)[C@H](O)[C@H]3O)ccc2O)cc1` [Compound 82, (1S)-1,5-Anhydro-1-[3-(4-ethoxybenzyl)-4-hydroxyphenyl]-1-thio-D-glucitol], on Human SGLT2, half-maximal inhibition (IC50) required 3780 nM and the SGLT1/SGLT2 amounted to 4.0. This compound also came in with an IC50 at Human SGLT1 of 15 µM.

As for `COc1cc(C)c(Cc2ccc(C(C)C)cc2)cc1[C@@H]1S[C@H](CO)[C@@H](O)[C@H](O)[C@H]1O` [Compound 105, (1S)-1,5-Anhydro-1-[3-(4-isopropylbenzyl)-6-methoxy-4-methylphenyl]-1-thio-D-glucitol], at Human SGLT2, 93 nM corresponded to half-maximal inhibition (IC50) and the SGLT1/SGLT2 worked out at 182.5. The compound also displayed an IC50 against Human SGLT1 of 17 µM.

Take `CCOc1ccc(Cc2cc([C@@H]3S[C@H](CO)[C@@H](O)[C@H](O)[C@H]3O)c(OC)cc2Cl)cc1` [Compound 99, (1S)-1,5-anhydro-1-[4-chloro-5-(4-ethoxybenzyl)-2-methoxyphenyl]-1-thio-D-glucitol]: at Human SGLT2, it took 32 nM to reach half-maximal inhibition (IC50) and the SGLT1/SGLT2 turned out to be 178.6. The IC50 at Human SGLT1 turned out to be 5.6 µM.

As for `CCOc1ccc(Cc2cc([C@@H]3S[C@H](CO)[C@@H](O)[C@H](O)[C@H]3O)ccc2OC)cc1` [Compound 77, (1S)-1,5-Anhydro-1-[3-(4-ethoxybenzyl)-4-methoxyphenyl]-1-thio-D-glucitol], at Human SGLT2, the IC50 was 690 nM and the SGLT1/SGLT2 was 11.6. This compound displayed an IC50 on Human SGLT1 of 8 µM.

Regarding `CCOc1ccc(Cc2cc([C@@H]3S[C@H](CO)[C@@H](O)[C@H](O)[C@H]3O)ccc2C)cc1` [Compound 86, (1S)-1,5-Anhydro-1-[3-(4-ethoxybenzyl)-4-methylphenyl]-1-thio-D-glucitol], at Human SGLT2, half-maximal inhibition (IC50) required 60 nM and the SGLT1/SGLT2 stood at 18.3. Further, the IC50 against Human SGLT1 was 1.1 µM.

Take `CCOc1ccc(Cc2cc([C@@H]3S[C@H](CO)[C@@H](O)[C@H](O)[C@H]3O)c(OC)cc2C)cc1` [Compound 89, (1S)-1,5-anhydro-1-[3-(4-ethoxybenzyl)-6-methoxy-4-methylphenyl]-1-thio-D-glucitol]: on Human SGLT2, the IC50 is 65 nM and the SGLT1/SGLT2 is recorded as 97.5. In addition, the IC50 on Human SGLT1 was 6.3 µM.

Regarding `OC[C@H]1S[C@@H](c2ccc(Cl)c(Cc3cc4ccccc4o3)c2)[C@H](O)[C@@H](O)[C@@H]1O` [Compound 132, (1S)-1,5-Anhydro-1-[3-[(1-benzofuran-2-yl)methyl]-4-chlorophenyl]-1-thio-D-glucitol], at Human SGLT2, the IC50 stood at 497 nM and the SGLT1/SGLT2 was 8.9. The IC50 against Human SGLT1 stood at 4.4 µM.

For `CCOc1ccc(Cc2cc([C@@H]3S[C@H](CO)[C@@H](O)[C@H](O)[C@H]3O)c(O)cc2C)cc1` [Compound 98, (1S)-1,5-Anhydro-1-[3-(4-ethoxybenzyl)-6-hydroxy-4-methylphenyl]-1-thio-D-glucitol], at Human SGLT2, 15 nM corresponded to half-maximal inhibition (IC50) and the SGLT1/SGLT2 is 6.5. The compound further yielded an IC50 against Human SGLT1 of 0.1 µM.

With `CCc1ccc(Cc2cc([C@@H]3S[C@H](CO)[C@@H](O)[C@H](O)[C@H]3O)c(OC)cc2C)cc1` [Compound 101, (1S)-1,5-Anhydro-1-[3-(4-ethylbenzyl)-6-methoxy-4-methylphenyl]-1-thio-D-glucitol], on Human SGLT2, 40 nM corresponded to half-maximal inhibition (IC50) and the SGLT1/SGLT2 is on record as 63.1. Moreover, at Human SGLT1, the IC50 was found to be 2.6 µM.

On to `CCc1ccc(Cc2cc([C@@H]3S[C@H](CO)[C@@H](O)[C@H](O)[C@H]3O)ccc2Cl)cc1` [Compound 95, (1S)-1,5-Anhydro-1-[4-chloro-3-(4-ethylbenzyl)phenyl]-1-thio-D-glucitol], for which, at Human SGLT2, the IC50 came to 28 nM and the SGLT1/SGLT2 is 22.3.

Consider `CCc1ccc(Cc2cccc([C@@H]3S[C@H](CO)[C@@H](O)[C@H](O)[C@H]3O)c2)cc1` [Compound 74, (1S)-1,5-anhydro-1-[3-(4-ethylbenzyl)phenyl]-1-thio-D-glucitol], for which, at Human SGLT2, inhibition was half-maximal at 1190 nM (IC50) and the SGLT1/SGLT2 came to 12.8. The same compound had an IC50 against Human SGLT1 of 15.3 µM.

For the compound `COc1cc(Cl)c(Cc2ccc(C(C)C)cc2)cc1[C@@H]1S[C@H](CO)[C@@H](O)[C@H](O)[C@H]1O` [Compound 103, (1S)-1,5-Anhydro-1-[4-chloro-3-(4-isopropylbenzyl)-6-methoxyphenyl]-1-thio-D-glucitol], on Human SGLT2, the IC50 worked out at 69 nM and the SGLT1/SGLT2 was determined as 347.9. On Human SGLT1, this compound showed an IC50 of 23.9 µM.

With `CCc1ccc(Cc2ccc([C@@H]3S[C@H](CO)[C@@H](O)[C@H](O)[C@H]3O)s2)cc1` [Compound 139, (1S)-1,5-anhydro-1-[5-(4-ethylbenzyl)thiophen-2-yl]-1-thio-D-glucitol], it took 114000 nM to reach half-maximal inhibition against Human SGLT2 (IC50).

Compound `CCOc1ccc(Cc2cncc([C@@H]3S[C@H](CO)[C@@H](O)[C@H](O)[C@H]3O)c2)cc1` [Compound 138, (1S)-1,5-anhydro-1-[5-(4-ethoxybenzyl)pyridin-3-yl]-1-thio-D-glucitol] showed an IC50 on Human SGLT2 of 33000 nM.

The compound `OC[C@H]1S[C@@H](c2cccc(Cc3ccc(-c4ccccc4)s3)c2)[C@H](O)[C@@H](O)[C@@H]1O` [Compound 134] gave an IC50 at Human SGLT2 of 2910 nM.
